# Assay results: ChEMBL document CHEMBL5346961, “Discovery and Evaluation of 3-Quinoxalin Urea Derivatives as Potent, Selective, and Orally Available ATM Inhibitors Combined with Chemotherapy for the Treatment of Cancer via Goal-Oriented Molecule Generation and Virtual Screening” (J Med Chem, 2023)
# Calls of active or inactive are those of the source. The rule behind the calls is not given here.
# Assays:
# MCF7 [1] = test: cells; details: Homo sapiens, MCF7, 144 h
# [2] = target: T1, Serine-protein kinase ATM (Homo sapiens, UniProt Q13315); test: Inhibition of flag tagged- ATM (unknown origin) expressed in Escherichia coli BL21 incubated for 20 mins in presence of ATP
# [3] = target: DNA-dependent protein kinase catalytic subunit (Homo sapiens, UniProt P78527); test: Inhibition of DNA-PK (unknown origin)
# [4] = target: Phosphatidylinositol 4,5-bisphosphate 3-kinase catalytic subunit alpha isoform (Homo sapiens, UniProt P42336); test: Inhibition of PIK3alpha (unknown origin)
# [5] = Metabolic stability in human liver microsomes assessed as clearance at 1 uM in presence of NADPH-regenerating system by LC-MS/MS analysis; type: ADME, Microsome
# [6] = Metabolic stability in human liver microsomes assessed as half life at 1 uM in presence of NADPH-regenerating system by LC-MS/MS analysis; type: ADME, Microsome
# HCT-116 [7] = test: Inhibition of colony formation in human HCT-116 cells at 0.01 uM preincubated for 1 hr followed by exposure to 2 Gy gamma irradiation and measured after 1 week by crystal violet staining based […] assay relative to control; type: functional; details: HCT-116, light or radiation study, time 169 hrs
# HCT-116 [8] = test: Inhibition of colony formation in human HCT-116 cells preincubated for 1 hr followed by exposure to 2 Gy gamma irradiation and measured after 1 week by crystal violet staining based […] assay; type: functional, cell-based; details: HCT-116, light or radiation study
# HCT-116 [9] = test: Antiproliferative activity against human HCT-116 cells assessed as cell survival at 1 uM incubated for 6 days by MTT assay relative to control; type: functional; details: HCT-116, 144 h, time 6 day, read-out: Survival
# HCT-116 [10] = test: Antiproliferative activity against human HCT-116 cells assessed as reduction in cell viability incubated for 6 days by MTT assay; type: functional, cell-based; details: HCT-116, 144 h
# SW-620 [11] = test: Antiproliferative activity against human SW620 cells assessed as reduction in cell viability incubated for 6 days by MTT assay; type: functional, cell-based; details: SW-620, 144 h
# MCF7 [12] = test: Antiproliferative activity against human MCF7 cells assessed as reduction in cell viability incubated for 6 days by MTT assay; type: functional, cell-based; details: MCF7, 144 h
# HCT-116 [13] = test: Inhibition of colony formation in human HCT-116 cells assessed as assessed as fold change in IC50 in presence of ionizing radiation; type: functional
# MCF7 [14] = test: Synergistic antiproliferative activity against human MCF7 cells assessed as fold increase in etoposide IC50 at 200 nM measured after 6 days by MTT assay; type: functional; details: time 6 day
# MCF7 [15] = test: Synergistic antiproliferative activity against human MCF7 cells assessed as fold increase in irinotecan IC50 at 200 nM measured after 6 days by MTT assay; type: functional; details: time 6 day
# SW-620 [16] = test: Synergistic antiproliferative activity against human SW620 cells assessed as fold increase in irinotecan IC50 at 200 nM measured after 6 days by MTT assay; type: functional; details: time 6 day
# SW-620 [17] = test: Synergistic inhibition of colony formation in human SW620 cells assessed as fold increase in irinotecan IC50 at 200 nM preincubated for 1 hr followed by irinotecan addition and measured after 1 week by crystal violet staining based […] assay; type: functional; details: time 169 hrs
# [18] = Cmax in Balb/C mouse at 10 mg/kg,iv measured upto 48 hrs by LC-MS/MS analysis; type: ADME, organism-based; design: time < 48 hrs, dose 10 mg/kg, route iv; details: in vivo
# [19] = Cmax in Balb/C mouse at 10 mg/kg,po measured upto 48 hrs by LC-MS/MS analysis; type: ADME, organism-based; design: dose 10 mg/kg, time < 48 hrs, route po; details: in vivo
# [20] = Tmax in Balb/C mouse at 10 mg/kg,iv measured upto 48 hrs by LC-MS/MS analysis; type: ADME, organism-based; details: in vivo
# [21] = Tmax in Balb/C mouse at 10 mg/kg,po measured upto 48 hrs by LC-MS/MS analysis; type: ADME, organism-based; details: in vivo
# [22] = Half life in Balb/C mouse at 10 mg/kg,iv measured upto 48 hrs by LC-MS/MS analysis; type: ADME, organism-based; details: in vivo
# [23] = Half life in Balb/C mouse at 10 mg/kg,po measured upto 48 hrs by LC-MS/MS analysis; type: ADME, organism-based; details: in vivo
# [24] = Clearance in Balb/C mouse at 10 mg/kg,iv measured upto 48 hrs by LC-MS/MS analysis; type: ADME, organism-based; details: in vivo
# [25] = Clearance in Balb/C mouse at 10 mg/kg,po measured upto 48 hrs by LC-MS/MS analysis; type: ADME, organism-based; details: in vivo
# [26] = Volume of distribution at steady state in Balb/C mouse at 10 mg/kg,iv measured upto 48 hrs by LC-MS/MS analysis; type: ADME, organism-based; details: in vivo, read-out: Vdss
# [27] = Volume of distribution at steady state in Balb/C mouse at 10 mg/kg,po measured upto 48 hrs by LC-MS/MS analysis; type: ADME, organism-based; details: in vivo
# [28] = AUC (0 to t) in Balb/C mouse at 10 mg/kg,iv measured upto 48 hrs by LC-MS/MS analysis; type: ADME, organism-based; design: time < 48 hrs, dose 10 mg/kg, route iv; details: in vivo
# [29] = AUC (0 to t) in Balb/C mouse at 10 mg/kg,po measured upto 48 hrs by LC-MS/MS analysis; type: ADME, organism-based; design: dose 10 mg/kg, time < 48 hrs, route po; details: in vivo
# [30] = Oral bioavailability in Balb/C mouse at 10 mg/kg measured upto 48 hrs by LC-MS/MS analysis; type: ADME, organism-based; details: in vivo
# SW-620 [31] = test: Antitumor activity against human SW620 cells xenografted in BALB/c nude mouse model assessed as tumor growth inhibition at 40 mg/kg, po administered once daily for 3 days weekly after irinotecan post treatment for 21 days by caliper method relative to control; type: functional; details: SW-620, 504 h, time 21 day, read-out: TGI
# HCT-116 [32] = test: Induction of DNA damage in human HCT-116 cells assessed as reduction in ATM phosphorylation at S1981 residue at 2 uM measured after 4 hrs by Western blot analysis; type: functional, cell-based
# HCT-116 [33] = test: Induction of DNA damage in human HCT-116 cells assessed as reduction in p21 phosphorylation at T145 residue at 2 uM measured after 4 hrs by Western blot analysis; type: functional, cell-based
# [34] = target: Serine/threonine-protein kinase ATR (Homo sapiens, UniProt Q13535); test: Inhibition of ATR (unknown origin) assessed as remaining activity at 1 uM in presence of [gamma33P-ATP] by radiometric assay
# [35] = target: T1, Serine-protein kinase ATM; test: Inhibition of ATM (unknown origin) assessed as remaining activity at 0.01 uM preincubated with compound for 30 mins followed by substrate addition and measured after 2 hrs by HTRF method relative to control; details: time 2.5 hrs
# [36] = target: T1, Serine-protein kinase ATM; test: Inhibition of ATM (unknown origin) preincubated with compound for 30 mins followed by substrate addition and measured after 2 hrs by HTRF method
# SW-620 [37] = test: Antiproliferative activity against human SW620 cells assessed as reduction in cell viability measured after 6 days by MTT assay; type: functional, cell-based; details: SW-620, 144 h
# SW-620 [38] = test: Inhibition of colony formation in human SW620 cells measured after 1 week by crystal violet staining based […] assay; type: functional, cell-based; details: SW-620, 168 h
# HCT-116 [39] = test: Induction of apoptosis in human HCT-116 cells assessed as viable cells at 5 uM measured after 2 days by AnnexinV-FITC/PI staining based analysis (reference value: 72.8%); type: functional; details: HCT-116, 48 h, time 2 day, read-out: Activity
# HCT-116 [40] = test: Induction of apoptosis in human HCT-116 cells assessed as early apoptotic cells at 5 uM measured after 2 days by AnnexinV-FITC/PI staining based analysis (reference value: 14.4%); type: functional; details: time 2 day
# HCT-116 [41] = test: Induction of apoptosis in human HCT-116 cells assessed as late apoptotic cells at 5 uM measured after 2 days by AnnexinV-FITC/PI staining based analysis (reference value: 12.2%); type: functional; details: time 2 day
# HCT-116 [42] = test: Induction of apoptosis in human HCT-116 cells assessed as necrotic cells at 5 uM measured after 2 days by AnnexinV-FITC/PI staining based analysis (reference value: 0.64%); type: functional; details: time 2 day
# SW-620 [43] = test: Antitumor activity against human SW620 cells xenografted in BALB/c nude mouse model assessed as tumor growth inhibition at 40 mg/kg, ip administered once weekly for 21 days by caliper method relative to control; type: functional; details: SW-620, 504 h, time 21 day, read-out: TGI
# [44] = Toxicity in BALB/c nude mouse assessed as reduction in body weight at 40 mg/kg, ip administered once weekly for 21 days relative to control; type: organism-based; design: scale not given: the % may be the effect or the level left; details: in vivo, 504 h, time 21 day
# HCT-116 [45] = test: Induction of DNA damage in human HCT-116 cells assessed as upregulation of gammaH2AX at 25 uM measured after 4 hrs by Western blot analysis; type: functional, cell-based
# HCT-116 [46] = test: Induction of DNA damage in human HCT-116 cells assessed as upregulation of ATM phosphorylation at S1981 residue at 25 uM measured after 4 hrs by Western blot analysis; type: functional, cell-based
# HCT-116 [47] = test: Induction of DNA damage in human HCT-116 cells assessed as upregulation of p21 at T145 residue at 25 uM measured after 4 hrs by Western blot analysis; type: functional, cell-based
# Sequence of Serine/threonine-protein kinase ATR (Q13535 whole entry, looked up): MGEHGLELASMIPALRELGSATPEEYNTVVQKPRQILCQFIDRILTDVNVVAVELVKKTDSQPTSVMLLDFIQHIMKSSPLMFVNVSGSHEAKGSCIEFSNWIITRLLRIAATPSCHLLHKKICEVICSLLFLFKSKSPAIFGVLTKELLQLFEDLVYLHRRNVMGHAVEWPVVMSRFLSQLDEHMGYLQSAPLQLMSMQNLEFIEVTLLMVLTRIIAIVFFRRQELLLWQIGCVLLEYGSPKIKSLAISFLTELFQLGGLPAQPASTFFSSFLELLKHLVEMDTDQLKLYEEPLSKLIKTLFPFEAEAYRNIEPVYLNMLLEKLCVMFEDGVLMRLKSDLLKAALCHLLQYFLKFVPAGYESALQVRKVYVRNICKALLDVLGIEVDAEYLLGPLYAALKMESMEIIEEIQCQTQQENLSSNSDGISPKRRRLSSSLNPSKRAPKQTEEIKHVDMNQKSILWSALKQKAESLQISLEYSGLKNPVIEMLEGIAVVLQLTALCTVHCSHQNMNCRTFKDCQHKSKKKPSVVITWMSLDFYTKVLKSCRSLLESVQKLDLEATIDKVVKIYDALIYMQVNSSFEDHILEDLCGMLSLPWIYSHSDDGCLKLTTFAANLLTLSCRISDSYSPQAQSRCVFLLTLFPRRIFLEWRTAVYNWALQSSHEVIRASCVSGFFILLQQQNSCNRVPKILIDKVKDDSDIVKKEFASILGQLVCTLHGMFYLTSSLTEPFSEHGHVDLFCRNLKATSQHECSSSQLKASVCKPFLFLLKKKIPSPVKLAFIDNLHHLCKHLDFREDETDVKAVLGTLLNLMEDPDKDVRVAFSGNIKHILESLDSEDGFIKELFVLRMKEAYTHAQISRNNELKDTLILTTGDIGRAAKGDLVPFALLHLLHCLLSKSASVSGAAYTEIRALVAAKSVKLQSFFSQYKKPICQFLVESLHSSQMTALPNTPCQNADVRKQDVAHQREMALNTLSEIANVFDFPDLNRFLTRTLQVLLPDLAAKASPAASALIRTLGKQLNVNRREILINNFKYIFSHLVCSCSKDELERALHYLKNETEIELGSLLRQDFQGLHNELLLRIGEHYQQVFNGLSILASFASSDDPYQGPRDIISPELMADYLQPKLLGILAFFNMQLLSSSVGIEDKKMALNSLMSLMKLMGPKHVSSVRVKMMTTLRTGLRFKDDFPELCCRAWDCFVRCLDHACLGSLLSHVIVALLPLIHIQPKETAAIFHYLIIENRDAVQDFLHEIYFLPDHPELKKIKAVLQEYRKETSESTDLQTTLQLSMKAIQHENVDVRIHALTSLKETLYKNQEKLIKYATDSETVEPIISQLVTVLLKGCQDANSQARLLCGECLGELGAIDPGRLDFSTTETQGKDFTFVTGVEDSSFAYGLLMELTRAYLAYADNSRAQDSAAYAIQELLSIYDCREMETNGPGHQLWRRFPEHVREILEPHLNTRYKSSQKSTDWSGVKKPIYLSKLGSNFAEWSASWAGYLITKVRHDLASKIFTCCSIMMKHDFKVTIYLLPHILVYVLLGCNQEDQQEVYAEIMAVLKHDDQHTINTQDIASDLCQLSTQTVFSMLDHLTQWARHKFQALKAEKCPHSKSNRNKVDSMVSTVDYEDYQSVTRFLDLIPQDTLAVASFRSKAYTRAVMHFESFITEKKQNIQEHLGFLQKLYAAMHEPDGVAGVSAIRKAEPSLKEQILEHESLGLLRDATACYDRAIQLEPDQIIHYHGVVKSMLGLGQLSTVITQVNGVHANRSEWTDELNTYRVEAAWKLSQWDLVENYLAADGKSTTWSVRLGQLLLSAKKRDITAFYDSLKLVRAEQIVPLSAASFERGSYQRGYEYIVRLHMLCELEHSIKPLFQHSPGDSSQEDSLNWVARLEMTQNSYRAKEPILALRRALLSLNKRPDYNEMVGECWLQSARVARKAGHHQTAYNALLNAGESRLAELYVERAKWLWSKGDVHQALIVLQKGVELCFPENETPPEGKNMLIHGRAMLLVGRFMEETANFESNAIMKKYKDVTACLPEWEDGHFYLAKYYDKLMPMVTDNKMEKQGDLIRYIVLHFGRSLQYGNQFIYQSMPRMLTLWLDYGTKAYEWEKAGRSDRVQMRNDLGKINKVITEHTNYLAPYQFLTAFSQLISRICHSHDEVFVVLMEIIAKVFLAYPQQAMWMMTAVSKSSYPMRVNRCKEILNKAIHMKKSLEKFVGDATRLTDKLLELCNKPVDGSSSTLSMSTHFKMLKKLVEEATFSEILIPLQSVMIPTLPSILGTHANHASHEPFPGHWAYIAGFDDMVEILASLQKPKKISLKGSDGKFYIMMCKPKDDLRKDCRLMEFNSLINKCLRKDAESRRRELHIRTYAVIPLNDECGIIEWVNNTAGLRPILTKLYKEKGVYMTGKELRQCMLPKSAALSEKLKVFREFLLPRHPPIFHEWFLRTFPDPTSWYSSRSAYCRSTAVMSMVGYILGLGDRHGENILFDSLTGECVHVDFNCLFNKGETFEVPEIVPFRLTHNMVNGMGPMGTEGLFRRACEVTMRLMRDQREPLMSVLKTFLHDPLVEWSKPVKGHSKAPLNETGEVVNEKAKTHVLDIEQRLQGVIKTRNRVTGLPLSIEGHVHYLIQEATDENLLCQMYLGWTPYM
# Sequence of Phosphatidylinositol 4,5-bisphosphate 3-kinase catalytic subunit alpha isoform (P42336 whole entry, canonical isoform): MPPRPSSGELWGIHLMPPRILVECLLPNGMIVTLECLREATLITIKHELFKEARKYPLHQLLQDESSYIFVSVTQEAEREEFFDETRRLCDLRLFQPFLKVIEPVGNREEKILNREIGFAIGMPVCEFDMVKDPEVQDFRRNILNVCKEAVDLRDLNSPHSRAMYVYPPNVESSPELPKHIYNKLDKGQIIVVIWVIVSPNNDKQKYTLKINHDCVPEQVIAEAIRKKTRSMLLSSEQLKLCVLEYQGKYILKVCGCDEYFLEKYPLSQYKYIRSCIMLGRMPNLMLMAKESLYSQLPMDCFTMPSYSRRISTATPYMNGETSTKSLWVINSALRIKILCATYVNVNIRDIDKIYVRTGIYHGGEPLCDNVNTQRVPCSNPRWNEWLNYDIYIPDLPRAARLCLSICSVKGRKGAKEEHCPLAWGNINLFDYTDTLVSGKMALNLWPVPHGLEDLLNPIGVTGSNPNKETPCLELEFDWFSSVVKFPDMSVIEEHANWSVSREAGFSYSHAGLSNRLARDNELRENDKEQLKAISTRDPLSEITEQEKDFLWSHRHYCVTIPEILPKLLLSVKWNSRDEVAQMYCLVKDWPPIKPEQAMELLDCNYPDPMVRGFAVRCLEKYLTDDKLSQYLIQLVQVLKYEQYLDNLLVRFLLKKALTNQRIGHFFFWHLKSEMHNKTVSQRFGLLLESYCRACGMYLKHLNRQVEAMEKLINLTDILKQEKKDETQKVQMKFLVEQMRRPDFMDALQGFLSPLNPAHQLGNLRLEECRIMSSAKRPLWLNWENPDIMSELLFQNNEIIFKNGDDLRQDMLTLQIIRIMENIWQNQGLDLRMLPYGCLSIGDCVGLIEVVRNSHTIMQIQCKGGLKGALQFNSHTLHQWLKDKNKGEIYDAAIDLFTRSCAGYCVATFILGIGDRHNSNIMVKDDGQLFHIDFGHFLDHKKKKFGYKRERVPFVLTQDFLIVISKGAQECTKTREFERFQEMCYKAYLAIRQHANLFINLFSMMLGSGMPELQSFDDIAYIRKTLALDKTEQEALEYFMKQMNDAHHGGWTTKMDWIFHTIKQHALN
smiles,measurement,setting,value
COc1cc([C@@H]2c3cc4c(cc3[C@@H](O[C@@H]3O[C@@H]5CO[C@@H](C)O[C@H]5[C@H](O)[C@H]3O)[C@H]3COC(=O)[C@H]23)OCO4)cc(OC)c1O [ETOPOSIDE],IC50,MCF7 [1],210 nM
CC(C)(C#N)c1ccc(N2C(=O)OCc3cnc4ccc(-c5cnc6ccccc6c5)cc4c32)cc1,IC50,[2],545 nM
same,IC50,[3],36 nM
same,IC50,[4],170 nM
COCc1ccc(-c2ccc3ncc(C(N)=O)c(N[C@@H](C)C4CCOCC4)c3c2)cn1,CLH,[5],7.2 mL/min/g
same,half-life at 1 µM,[6],193 min
same,inhibition at 0.01 µM,HCT-116 [7],13.2%
same,IC50,HCT-116 [8],20 nM
same,viability at 1 µM,HCT-116 [9],> 83%
same,IC50,HCT-116 [10],> 9000 nM
same,IC50,SW-620 [11],> 9000 nM
same,IC50,MCF7 [12],> 9000 nM
same,fold change (FC),HCT-116 [13],6520
same,fold change (FC),MCF7 [14],1.4
same,fold change (FC),MCF7 [15],2.1
same,fold change (FC),SW-620 [16],1.5
same,fold change (FC),SW-620 [17],3.3
same,Cmax,[18],3010 ng/mL
same,Cmax,[19],1360 ng/mL
same,Tmax,[20],4.8 min
same,Tmax,[21],79.8 min
same,t1/2,[22],257 min
same,t1/2,[23],190 min
same,clearance,[24],22 mL/min/kg
same,CL/F,[25],23 mL/min/kg
same,Vd,[26],7.68 L/kg
same,Vdss,[27],6.49 L/kg
same,AUCt,[28],7772.02 ng·h/mL
same,AUCt,[29],7396.76 ng·h/mL
same,bioavailability,[30],95.2%
same,inhibition in vivo at 40 mg/kg,SW-620 [31],77.7%
same,Activity,HCT-116 [32],Active
same,Activity,HCT-116 [33],Active
CC(C)NC(=O)N(C)c1cnc2ccc(-c3ccc(OCCCN(C)C)nc3)cc2n1,Activity,[34],105%
same,CLH,[5],40 mL/min/g
same,half-life at 1 µM,[6],35 min
same,Activity,[35],14%
same,IC50,[36],2 nM
same,inhibition at 0.01 µM,HCT-116 [7],58.4%
same,IC50,HCT-116 [8],8.94 nM
same,viability at 1 µM,HCT-116 [9],> 83%
CN(C)CCCOc1ccc(-c2ccc3ncc(N(C)C(=O)NC4CC4)nc3c2)cn1,Activity,[34],114%
same,CLH,[5],39 mL/min/g
same,half-life at 1 µM,[6],41 min
same,Activity,[35],17%
same,IC50,[36],8 nM
same,inhibition at 0.01 µM,HCT-116 [7],43.9%
same,IC50,HCT-116 [8],15.3 nM
same,viability at 1 µM,HCT-116 [9],> 83%
CCCCNC(=O)N(C)c1cnc2ccc(-c3ccc(OCCCN(C)C)nc3)cc2n1,Activity,[34],105%
same,CLH,[5],64 mL/min/g
same,half-life at 1 µM,[6],22 min
same,Activity,[35],3%
same,IC50,[36],0.8 nM
same,inhibition at 0.01 µM,HCT-116 [7],92.7%
same,IC50,HCT-116 [8],7.65 nM
same,viability at 1 µM,HCT-116 [9],> 83%
CCc1c2c(nc3ccc(OC(=O)N4CCC(N5CCCCC5)CC4)cc13)-c1cc3c(c(=O)n1C2)COC(=O)[C@]3(O)CC [IRINOTECAN],IC50,SW-620 [37],980 nM
same,IC50,SW-620 [38],230 nM
same,viability at 5 µM,HCT-116 [39],52.3%
same,Activity,HCT-116 [40],26%
same,Activity,HCT-116 [41],19.9%
same,Activity,HCT-116 [42],1.7%
same,inhibition in vivo at 40 mg/kg,SW-620 [43],69.2%
same,Activity,[44],< 12%
same,Activity,HCT-116 [45],inactive
same,Activity,HCT-116 [46],Active
same,Activity,HCT-116 [47],Active
same,IC50,MCF7 [1],910 nM
